Measured values from US11414424B2, “Cardiac sarcomere inhibitors” (Cytokinetics, Inc., priority 2018, dated 2022).

Test system: bovine cardiac myofibrils
Experiment: Myofibril assay: PK/LDH-coupled steady-state ATPase activity of skinned bovine cardiac myofibrils
Format: biochemical
Settings: Ca2+ activating to 75% of maximal rate
In short: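 Steady-state ATPase of detergent-skinned bovine left-ventricular myofibrils (1 mg/mL), PK/LDH-coupled NADH read at 340 nm, in PIPES/MgCl2 buffer pH 6.8 with 50 μM ATP, 0.6 mM EGTA and CaCl2 set for 50% or 75% activation. Inhibition of activity measured.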

Row | CDMF75 IC15 [nM] | SMILES
1 | 4700 | C=C(C)c1ccc(N2CC(=O)N(Cc3ccc(C(F)(F)F)cc3)C3(CN(C(=O)NC)C3)C2=O)cc1 [Compound 161, N-methyl-6,9-dioxo-8-(4-(prop-1-en-2-yl)phenyl)-5-(4-(trifluoromethyl)benzyl)-2,5,8-triazaspiro[3.5]-nonane-2-carboxamide]
2 | 7300 | CNC(=O)N1CC2(C1)C(=O)N(c1cccc(Cl)c1)CC(=O)N2Cc1ccc(C(F)(F)F)cc1 [Compound 163, 8-(3-chlorophenyl)-N-methyl-6,9-dioxo-5-(4-(trifluoromethyl)benzyl)-2,5,8-triazaspiro[3.5]-nonane-2-carboxamide]
3 | 1600 | CNC(=O)N1CC2(C1)C(=O)N(c1ccc(C#N)cc1)CC(=O)N2Cc1ccc(Cl)cc1 [Compound 164, 5-(4-chlorobenzyl)-8-(4-cyanophenyl)-N-methyl-6,9-dioxo-2,5,8-triazaspiro-[3.5]nonane-2-carboxamide]
4 | 1400 | CNC(=O)N1CC2(C1)C(=O)N(c1ccc(-c3noc(C(F)F)n3)cc1)CC(=O)N2Cc1ccc(C(F)(F)F)cc1 [Compound 165, 8-(4-(5-(difluoromethyl)-1,2,4-oxadiazol-3-yl)-phenyl)-N-methyl-6,9-dioxo-5-(4-(trifluoromethyl)-benzyl)-2,5,8-triazaspiro-[3.5]nonane-2-carboxamide]
5 | 2400 | CNC(=O)N1CC2(C1)C(=O)N(c1ccc(Cl)c(C)c1)CC(=O)N2Cc1ccc(C(F)(F)F)cc1 [Compound 166, 8-(4-chloro-3-methyl-phenyl)-N-methyl-6,9-dioxo-5-(4-(trifluoromethyl)-benzyl)-2,5,8-triazaspiro-[3.5]nonane-2-carboxamide]
6 | 1300 | CNC(=O)N1CC2(C1)C(=O)N(c1ccc(C#N)c(C)c1)CC(=O)N2Cc1ccc(C(F)(F)F)cc1 [Compound 167, 8-(4-cyano-3-methyl-phenyl)-N-methyl-6,9-dioxo-5-(4-(trifluoromethyl)-benzyl)-2,5,8-triazaspiro-[3.5]nonane-2-carboxamide]
7 | 300 | CNC(=O)N1CC2(C1)C(=O)N(c1ccc(Cl)cc1F)CC(=O)N2Cc1ccc(C(F)(F)F)cc1 [Compound 168, 8-(4-chloro-2-fluoro-phenyl)-N-methyl-6,9-dioxo-5-(4-(trifluoro-methyl)benzyl)-2,5,8-triazaspiro[3.5]nonane-2-carboxamide]
8 | 2900 | CNC(=O)N1CC2(C1)C(=O)N(c1ccc(OC)c(F)c1)CC(=O)N2Cc1ccc(C(F)(F)F)cc1 [Compound 170, 8-(3-fluoro-4-methoxy-phenyl)-N-methyl-6,9-dioxo-5-(4-(trifluoromethyl)-benzyl)-2,5,8-triazaspiro-[3.5]nonane-2-carboxamide]
9 | 2000 | CNC(=O)N1CC2(C1)C(=O)N(c1ccc(OC(F)F)c(F)c1)CC(=O)N2Cc1ccc(C(F)(F)F)cc1 [Compound 171, 8-(4-(difluoromethoxy)-3-fluorophenyl)-N-methyl-6,9-dioxo-5-(4-(trifluoromethyl)benzyl)-2,5/8-triazaspiro[3.5]-nonane-2-carboxamide]
10 | 18500 | CNC(=O)N1CC2(C1)C(=O)N(c1ccc(C(=O)c3ccccc3)cc1)CC(=O)N2Cc1ccc(C(F)(F)F)cc1 [Compound 172, 8-(4-benzoylphenyl)-N-methyl-6,9-dioxo-5-(4-(trifluoromethyl)benzyl)-2,5,8-triazaspiro[3.5]-nonane-2-carboxamide]

Row | SMILES | CDMF75 IC15 [nM]
11 | CNC(=O)N1CC2(C1)C(=O)N(c1ccc(C#N)c(F)c1)CC(=O)N2Cc1ccc(C(F)(F)F)cc1 [Compound 162, 8-(4-cyano-3-fluorophenyl)-N-methyl-6,9-dioxo-5-(4-(trifluoromethyl)benzyl)-2,5,8-triazaspiro[3.5]-nonane-2-carboxamide] | 400
12 | CNC(=O)N1CC2(C1)C(=O)N(c1ccc(C#N)cc1F)CC(=O)N2Cc1ccc(C(F)(F)F)cc1 [Compound 169, 8-(4-cyano-2-fluorophenyl)-N-methyl-6,9-dioxo-5-(4-(trifluoromethyl)benzyl)-2,5,8-triazaspiro[3.5]nonane-2-carboxamide] | 200
